We go through 7 compounds from ChEMBL document CHEMBL1126005 (Bioorg Med Chem Lett, 1991).

pKi: −log10 of the molar value.

The Ki is a dissociation constant, usually derived from enzyme kinetics or from competition with a known ligand. A lower Ki goes with tighter binding. The pKi is the Ki on a negative log10 scale, so that one unit is a factor of ten. Higher therefore signals a low Ki.

In assay [1] the target is Adenosine A2 receptor (Rattus norvegicus, UniProt P29276+P30543).
Assay [2] concerns the target T1, Adenosine receptor A1 (Rattus norvegicus, UniProt P25099).
T1 sequence (P25099 whole entry): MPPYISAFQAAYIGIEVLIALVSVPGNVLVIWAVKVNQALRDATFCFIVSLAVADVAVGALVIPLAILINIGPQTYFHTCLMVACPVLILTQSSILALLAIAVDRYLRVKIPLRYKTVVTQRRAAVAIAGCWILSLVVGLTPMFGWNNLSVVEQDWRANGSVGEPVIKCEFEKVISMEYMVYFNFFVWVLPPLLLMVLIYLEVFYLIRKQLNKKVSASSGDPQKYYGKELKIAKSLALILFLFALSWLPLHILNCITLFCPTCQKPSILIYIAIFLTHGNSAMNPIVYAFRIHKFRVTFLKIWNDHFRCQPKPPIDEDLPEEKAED
As to the kind of experiment: biochemical.

`OC[C@H]1OC(n2cnc3c(NC4CCCCCC4)nc(O)nc32)[C@H](O)[C@@H]1O` (some centres undefined) registered a Ki in assay [1] of 6000 nM. For the same compound, the pKi in assay [2] is 7.15.

In assay [1], `OC[C@H]1OC(n2cnc3c(NC4CCCC4)nc(I)nc32)[C@H](O)[C@@H]1O` (some centres undefined) registered a Ki of 40000 nM. Moreover, the pKi in assay [2] is 7.70.

In turn, `OC[C@H]1OC(n2cnc3c(NC4CCCC4)nc(O)nc32)[C@H](O)[C@@H]1O` (some centres undefined) came in with a Ki in assay [1] of 7500 nM. This compound had a pKi in assay [2] of 7.72.

With `OC[C@H]1OC(n2cnc3c(NC4CCC4)nc(O)nc32)[C@H](O)[C@@H]1O` (some centres undefined), the Ki in assay [1] came to 15000 nM. Also, the pKi in assay [2] was 7.26.

Compound `OC[C@H]1OC(n2cnc3c(NC4CC5CCC4C5)nc(O)nc32)[C@H](O)[C@@H]1O` (some centres undefined) gave an inhibition constant (Ki) in assay [1] of 80000 nM. For the same compound, the pKi in assay [2] was 7.46.

On to `OC[C@H]1OC(n2cnc3c(NC4CCCCC4)nc(O)nc32)[C@H](O)[C@@H]1O` (some centres undefined), for which the inhibition constant Ki in assay [1] is given as 15000 nM. This compound also gave a pKi in assay [2] of 7.40.

Compound `OC[C@H]1OC(n2cnc3c(NC4CCC5CCCCC5C4)nc(O)nc32)[C@H](O)[C@@H]1O` (some centres undefined) had a Ki in assay [1] of 140000 nM. Also, the pKi in assay [2] is 4.52.
